Laboratory results taken from US11370779B2, “Pharmaceutical composition for preventing or treating acute myeloid leukemia or metastatic breast cancer” (PELEMED CO., LTD., priority 2017, dated 2022).
Like-named read-outs stand apart in the source and are kept apart here.

Experiments:
MV4;11 cells = test: Cell viability, EZ-Cytox tetrazolium assay, MV4;11; type: cell-based, human
Experimental: The cultured cells were incubated at 3° C. with 5% CO2.
(§1) Cell viability was assessed by a tetrazolium-based assay using the EZ-Cytox Cell Viability Assay kit (DaeilLab, Korea). Briefly, 2,000 to 15,000 cells were plated in 96-well plates in 100 μl of medium. The next day, the cells were treated with compounds together with dimethyl sulfoxide (DMSO) as a negative control. Three days (72 hours) after the drug addition, 15 μl of the EZ-Cytox kit reagent was added to each well of the 96-well plate and then incubated at 37° C. in a humidified CO2 incubator for 4 hours. After incubation, the optical density (OD) was measured at a wavelength of 450 nm using a Victor multilabel reader (Perkin Elmer, Waltham, Mass., USA).

PC-3 cells = test: Cytotoxicity assay, PC-3; type: cell-based; settings: Homo sapiens, mean ± S.D.
Experimental: MDA-MB-231 (metastatic breast cancer, ATCC HTB-26), Jurkat (human acute T lymphocytic leukemia, ATCC TIB-152), and K-562 (human chronic myelogenous leukemia, ATCC CCL-243) cells were cultured in RPMI-1640 (Sigma Co.). MCF7 (human breast adenocarcinoma, ATCC HTB-22) and PC-3 (human prostate adenocarcinoma, ATCC CRL-1435) cells were cultured in DMEM (Sigma Co.) medium supplemented with 10% fetal bovine serum and 1% penicillin/streptomycin. The cultured cells were incubated at […] with 5% CO2. Cell viability was assessed by a tetrazolium-based assay using the EZ-Cytox Cell Viability Assay kit (DaeilLab, Korea). […] The next day, the cells were treated with compounds together with dimethyl sulfoxide (DMSO) as a negative control. Three days (72 hours) after the drug addition, 15 μl of the EZ-Cytox kit reagent was added to each well of the 96-well plate and then incubated at 37° C. in a humidified CO2 incubator for 4 hours. After incubation, the optical density (OD) was measured at a wavelength of 450 nm using a Victor multilabel reader (Perkin Elmer, Waltham, Mass., USA). The IC50 was calculated by nonlinear regression using Prism version 5.01 (GraphPad, La Jolla, Calif., USA).

FLT3 kinase = FLT3 kinase (Homo sapiens (Human), UniProt P36888); test: In vitro FLT3 kinase HTRF assay (Example 2); type: biochemical; settings: FLT3 vs JAK2, JAK3, cMET, IRAK4
Experimental: Inhibition of the FLT3 kinase activity was measured using homogeneous, time-resolved fluorescence (HTRF) assays. Recombinant proteins containing the FLT3 kinase domain were purchased from Carna biosciences (Japan). Optimal enzyme, ATP, and substrate concentrations were established using the HTRF KinEASE kit (Cisbio, France) according to the manufacturer's instructions. The FLT3 enzymes were mixed in sequence with diluted compounds and peptide substrates in a kinase reaction buffer (50 mM HEPES (pH 7.0), 500 μM ATP, 0.1 mM sodium orthovanadate, 5 mM MgCl2, 1 mM DTT, 0.01% bovine serum albumin (BSA), and 0.02% NaN3). After the addition of the reagents for detection, the TR-FRET signal was measured using a Victor multilabel reader (Perkin Elmer, Waltham, Mass., USA). […] JAK2, JAK3, cMET, and RET in vitro kinase assays were also performed using the HTRF assay.

cMET = cMET (Homo sapiens (Human), UniProt P08581); test: cMET in vitro kinase HTRF assay; type: biochemical; settings: mean ± S.D.
Experimental: Inhibition of the FLT3 kinase activity was measured using homogeneous, time-resolved fluorescence (HTRF) assays. Recombinant proteins containing the FLT3 kinase domain were purchased from Carna biosciences (Japan). Optimal enzyme, ATP, and substrate concentrations were established using the HTRF KinEASE kit (Cisbio, France) according to the manufacturer's instructions. The FLT3 enzymes were mixed in sequence with diluted compounds and peptide substrates in a kinase reaction buffer (50 mM HEPES (pH 7.0), 500 μM ATP, 0.1 mM sodium orthovanadate, 5 mM MgCl2, 1 mM DTT, 0.01% bovine serum albumin (BSA), and 0.02% NaN3). After the addition of the reagents for detection, the TR-FRET signal was measured using a Victor multilabel reader (Perkin Elmer, Waltham, Mass., USA). The IC50 was calculated by nonlinear regression using Prism version 5.01 (GraphPad). JAK2, JAK3, cMET, and RET in vitro kinase assays were also performed using the HTRF assay.

MV4;11 xenograft = test: MV4;11 mouse tumor xenograft, intravenous LDD1937; type: in vivo
Experimental: The drug or the control PBS was injected daily for a duration of 21 days.

MDA-MB-231 xenograft = test: MDA-MB-231 mouse tumor xenograft; type: in vivo; settings: 20 mg/kg/p.o/day, 4 weeks
Experimental: 6-weeks-old Balb/c nu/nu mice (female) were purchased from Central Lab. Animal Inc. to be used. […] The candidate substances LDD-2614 (Compound 21), 2633 (Compound 28), 2634 (Compound 34), 2635 (Compound 33) were administered at 20 mg/kg/p.o/day, and doxorubicin, which was a control, was administered at 5 mg/kg/i.p (once a week) for 4 weeks.

MOLM14 FLT3-ITD-D835Y = test: Cell proliferation MTT assay, MOLM14-ITD-D835Y; type: cell-based, human; settings: Homo sapiens, MOLM-14
Experimental: (§3) MOLM14 were purchased from the ATCC and the cells were maintained in RPMI medium (Hyclone) with 10% Fetal bovine serum (Gibco) and 1% penicillin/streptomycin.
Mutagenesis is performed in FLT3-ITD MSCV plasmid using Q5 site-directed mutagenesis kit (E05545). […] Retroviral particles were produced by transiently transfecting HEK293T cells with Retroviral vectors together with packaging vectors, GPE and VSVG. 48 h after transfection, media containing viral particles were collected and filtered for infection. Viral particles were infected to MOLM14 cells and 48 h after infection, infected cells were selected with puromycin (1 μg/mL).

HCT-116 (colon cancer) = test: WST anti-proliferative assay, HCT-116; type: cell-based; settings: Homo sapiens, HCT-116, read-out: % inhibition at 1 μM, HCT-116
Experimental: (§2) (Table 6) Compound 33 (LDD-2635) was tested at 8 concentrations to measure their anti-proliferative effects on various human cancer cell lines using WST assay. The GI50 values were obtained in triplicate and the error bars represent the standard error of the mean.

A549 (lung cancer) = test: WST anti-proliferative assay, A549; type: cell-based; settings: Homo sapiens, A549, read-out: % inhibition at 1 μM, A549
Experimental: as §2

MOLM14 Wild type = test: Cell proliferation MTT assay, MOLM14 wild type; type: cell-based; settings: Homo sapiens, MOLM-14
Source text: as §3

MV4-11 xenograft = test: MV4-11 mouse tumor xenograft, oral administration
Experimental: The drug or the control PBS was administered daily for a duration of 21 days. Tumor sizes were measured twice a week for 21 days, and the tumor volumes were calculated with the following formula: V (volume)=X (length)×D (width)2/2. After 21 days, the mice were sacrificed, and the tumor weights were measured.
An in vivo MV4-11 xenograft study was performed to determine the efficacy of the indirubin derivatives. MV4-11 cells were subcutaneously injected into BALB/c nu/nu mice, and tumors were allowed to grow to a size of approximately 100 mm^3.

SK-OV-3 (ovarian cancer) = test: WST anti-proliferative assay, SK-OV-3; type: cell-based; settings: Homo sapiens, SK-OV-3, read-out: % inhibition at 1 μM, SK-OV-3
Experimental: as §2

MDA-MB-231 = test: Cell viability, EZ-Cytox tetrazolium assay, MDA-MB-231; type: cell-based, human; settings: Homo sapiens, MDA-MB-231; 72 hours
Experimental: MDA-MB-231 (metastatic breast cancer, ATCC HTB-26), Jurkat (human acute T lymphocytic leukemia, ATCC TIB-152), and K-562 (human chronic myelogenous leukemia, ATCC CCL-243) cells were cultured in RPMI-1640 (Sigma Co.). MCF7 (human breast adenocarcinoma, ATCC HTB-22) and PC-3 (human prostate adenocarcinoma, ATCC CRL-1435) cells were cultured in DMEM (Sigma Co.) medium supplemented with 10% fetal bovine serum and 1% penicillin/streptomycin. The cultured cells were incubated at 3° C. with 5% CO2.
as §1, with “USA). The IC50 was calculated by nonlinear regression using Prism version 5.01 (GraphPad, La Jolla, Calif., USA).” for “USA).”

PC3 (prostate cancer) = test: WST anti-proliferative assay, PC3; type: cell-based; settings: Homo sapiens, read-out: % inhibition at 1 μM, PC3
Experimental: as §2

[1] = test system: MOLM14 FLT3-ITD (MOLM14-ITD); test: Cell proliferation MTT assay, MOLM14-ITD; type: cell-based; settings: Homo sapiens, MOLM-14
Experimental: as §3
Viral particles were infected to MOLM14 cells and 48 h after infection, infected cells were selected with puromycin (1 μg/mL).

HepG2 (liver cancer) = test: WST anti-proliferative assay, HepG2; type: cell-based; settings: Homo sapiens
Experimental: as §2

MV4-11 cells = test: Cytotoxicity WST assay, MV4-11 (Example 3); type: cell-based, human; settings: for GI50: Homo sapiens, MV4-11, WST assay
Experimental: Test 96-well plates were incubated at 37° C. with 5% CO2 for 72 h. After 72 h incubation, 10 μL of the EZ-Cytox kit reagent from EZ-cytox Cell viability assay kit (DaeilLab, Korea) were added to each well of the 96-well plate and then incubated at 37° C. with 5% CO2 for 3 h. […] The IC50 values were calculated with nonlinear regression analysis using OriginPro 9.1 software (OriginLab, Northampton, Mass.). […] The GI50 values were obtained in triplicate and the error bars represent the standard error of the mean.

[2] = Homo sapiens, MV4-11, 72 hours, read-out: GI50(nM) MV4;11

Sequence of cMET (P08581 25-1390): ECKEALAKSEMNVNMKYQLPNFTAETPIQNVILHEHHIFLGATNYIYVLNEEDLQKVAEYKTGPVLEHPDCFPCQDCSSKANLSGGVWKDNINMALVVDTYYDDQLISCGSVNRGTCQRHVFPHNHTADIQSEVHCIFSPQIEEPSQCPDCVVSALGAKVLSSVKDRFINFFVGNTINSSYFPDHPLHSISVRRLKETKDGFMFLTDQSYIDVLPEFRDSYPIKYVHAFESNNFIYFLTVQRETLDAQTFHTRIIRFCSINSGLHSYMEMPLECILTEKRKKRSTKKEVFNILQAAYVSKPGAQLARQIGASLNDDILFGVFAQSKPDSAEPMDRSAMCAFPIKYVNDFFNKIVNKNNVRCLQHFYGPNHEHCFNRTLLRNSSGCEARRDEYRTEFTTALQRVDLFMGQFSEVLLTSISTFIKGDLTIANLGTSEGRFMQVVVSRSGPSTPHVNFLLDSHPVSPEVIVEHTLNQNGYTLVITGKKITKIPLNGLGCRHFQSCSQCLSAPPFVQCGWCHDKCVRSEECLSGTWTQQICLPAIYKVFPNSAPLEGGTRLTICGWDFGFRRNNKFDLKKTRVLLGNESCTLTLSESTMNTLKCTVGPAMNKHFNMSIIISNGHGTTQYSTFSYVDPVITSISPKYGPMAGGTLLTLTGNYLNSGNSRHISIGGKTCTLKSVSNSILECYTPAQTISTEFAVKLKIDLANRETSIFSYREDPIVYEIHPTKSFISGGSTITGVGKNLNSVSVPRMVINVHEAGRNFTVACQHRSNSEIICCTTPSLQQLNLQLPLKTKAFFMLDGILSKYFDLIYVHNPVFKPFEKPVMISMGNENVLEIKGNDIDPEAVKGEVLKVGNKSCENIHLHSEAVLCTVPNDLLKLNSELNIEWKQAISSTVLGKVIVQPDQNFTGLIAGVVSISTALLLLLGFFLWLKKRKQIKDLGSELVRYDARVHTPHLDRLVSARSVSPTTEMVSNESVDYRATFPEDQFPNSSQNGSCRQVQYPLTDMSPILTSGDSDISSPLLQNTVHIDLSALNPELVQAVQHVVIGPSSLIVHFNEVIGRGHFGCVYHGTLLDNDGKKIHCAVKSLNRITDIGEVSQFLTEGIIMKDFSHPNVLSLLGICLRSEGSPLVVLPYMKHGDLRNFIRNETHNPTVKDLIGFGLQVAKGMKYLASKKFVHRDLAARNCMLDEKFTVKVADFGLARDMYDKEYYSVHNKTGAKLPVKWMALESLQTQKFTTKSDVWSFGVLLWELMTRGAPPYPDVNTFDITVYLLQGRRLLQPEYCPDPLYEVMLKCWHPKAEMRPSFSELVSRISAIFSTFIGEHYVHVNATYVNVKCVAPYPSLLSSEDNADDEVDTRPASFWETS
Sequence of FLT3 kinase (P36888 610-943): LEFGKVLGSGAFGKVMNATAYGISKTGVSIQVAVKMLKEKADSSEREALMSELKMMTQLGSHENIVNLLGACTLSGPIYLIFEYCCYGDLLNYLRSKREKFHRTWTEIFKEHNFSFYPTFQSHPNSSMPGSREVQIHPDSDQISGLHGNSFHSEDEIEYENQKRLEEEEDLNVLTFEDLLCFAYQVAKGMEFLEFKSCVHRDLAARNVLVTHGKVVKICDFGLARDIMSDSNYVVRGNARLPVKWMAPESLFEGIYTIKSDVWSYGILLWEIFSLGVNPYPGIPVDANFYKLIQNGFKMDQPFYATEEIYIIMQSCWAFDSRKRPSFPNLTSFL

Q: Which results are given for `COC(=O)c1ccc2c(c1)/C(=C1/Nc3ccccc3/C1=N\OCCN1CCNCC1)C(=O)N2.Cl.Cl` [Compound 4, Methyl (2Z,3E)-2′-oxo-3-((2-(piperazin-1-yl)ethoxy)imino)-[2,3′-biindolinylidene]-5′-carboxylate dihydrochloride]?
A: increase of activity against MV4;11 compared to Compound 1 (MV4;11 cells): 40 fold; GI50 (MV4;11 cells; [2]): 1 nM; IC50 (MV4;11 cells; Homo sapiens, MV4-11, Table 1, 72 hours): 1 nM; GI50 (MV4;11 cells; Homo sapiens, MV4-11, Table 4, mean ± S.D., read-out: GI50 (μM) MV-4-11): 1.2 ± 0.15 nM; GI50 (PC-3 cells): 1.1 ± 0.14 µM; difference in the IC50 between FLT3 and other kinases (FLT3 kinase): ≥ 170 fold; IC50 (cMET): 0.25 ± 0.074 µM; day from which the tumor disappeared (MV4;11 xenograft; 10 mg/kg i.v. daily, based on measured tumor volume): 3 days; body weight during the administration period (MV4;11 xenograft; 5 or 10 mg/kg i.v., 21 days, between groups): no significant difference in body weight

Q: What does the source list for `Cl.Cl.O=C1Nc2ccc(F)cc2/C1=C1/Nc2ccccc2/C1=N\OCCN1CCNCC1` [Compound 33, (2Z,3E)-5′-fluoro-3-((2-(piperazin-1-yl)ethoxy)imino)-[2,3′-biindolinylidene]-2′-one dihydrochloride]?
A: weights of the liver and the kidney (MDA-MB-231 xenograft): no significant difference; GI50 (MOLM14 FLT3-ITD-D835Y): 1.87 nM; GI50 (MV4;11 cells; [2]): 1 nM; inhibition at 1 µM (HCT-116 (colon cancer)): 38.5%; inhibition at 1 µM (A549 (lung cancer)): 2.05%; GI50 (MOLM14 Wild type): 4.88 nM; weight loss or other signs of toxicity during the administration period (MV4-11 xenograft; 20 mg/kg oral once daily for 21 days): no weight loss or any other signs of toxicity; day by which the tumor disappeared (MV4-11 xenograft; 20 mg/kg oral once daily, based on measured tumor volume): ≤ 14 days; inhibition at 1 µM (SK-OV-3 (ovarian cancer)): 16%; GI50 (MDA-MB-231): 117 nM; inhibition at 1 µM (PC3 (prostate cancer)): 40.7%; GI50 [1]: 1.85 nM; GI50 (HepG2 (liver cancer)): 1.1 ± 0.2 µM; times more sensitive against MV4-11 cells than K562 cell line (MV4-11 cells): 430 times; GI50 (MV4-11 cells; Table 6, read-out: GI50 value (μM) MV4-11): 0.001 ± 0.0003 µM; GI50 (MV4-11 cells; read-out: GI50 MV4-11 cells): 0.001 µM
